Laboratory results reported in US20030065015A1 (priority 2001, published 2003).
“And” between values parts separate entries of the source, which are not always exact repeats. Identical values can stand only once.

Experiments:
[1] = pH=6
physchem = settings: pH 6
[2] = assay type: physicochemical; settings: pH 0

SMILES | partition coefficient [1] | logD (physchem) | Ko/a [2]
C[n+]1ccccc1/C=N/O [2-PAM chloride, 2-[(hydroxyimino)methyl]-1-methylpyrdinium chloride] | 0.79 | -3.12 | –
CN(C)C(=O)Oc1ccc[n+](C)c1.[Br-] [Pyridostigmine Bromide, 3-dimethylaminocarbonyloxy-N-methylpyridinium bromide] | – | – | 1.9 × 10^−3 and 2.3 × 10^−2 and 2.0 × 10^−2
